Results taken from patent publication EP4488270A1, “TRIAZOLE COMPOUNDS FOR THE CONTROL OF INVERTEBRATE PESTS” (priority 2023, dated 2025).

Columns and labels:
Type in all cases: in vivo
[1] = test system: green peach aphid (Myzus persicae); experiment: Green peach aphid systemic test, artificial diet under membrane in 96-well microtiter plates; settings: 72 h, adult aphids on treated diet, 3 days, about 23 ± 1°C, read-out: mortality in comparison with untreated controls
Source text: B.1 Green Peach Aphid (Myzus persicae)
For evaluating control of green peach aphid (Myzus persicae) through systemic means, the test unit consisted of 96-well-microtiter plates containing liquid artificial diet under an artificial mem brane.
The compounds were formulated using a solution containing 75% v/v water and 25% v/v DMSO. Different concentrations of formulated compounds were pipetted into the aphid diet, using a custom built pipetter, at two replications.
After application, 5 - 8 adult aphids were placed on the artificial membrane inside the microtiter plate wells. The aphids were then allowed to suck on the treated aphid diet and incubated at about 23 ± 1°C and about 50 ± 5 % relative humidity for 3 days. Aphid mortality and fecundity was then visually assessed.

[2] = test system: Orchid thrips (Dichromothrips corbetti); experiment: Orchid thrips floral-immersion test; settings: adult thrips on dipped orchid petals, 72 hours after treatment, read-out: mortality in comparison with untreated controls
Protocol: B.6 Orchid thrips (Dichromothrips corbetti)
Dichromothrips corbetti adults used for bioassay are obtained from a colony maintained continuously under laboratory conditions. For testing purposes, the test compound is diluted in a 1:1 mixture of acetone:water (vol:vol), plus Kinetic at a rate of 0.01% v/v.
Thrips potency of each compound is evaluated by using a floral-immersion technique. Each orchid petal is dipped into treatment solution and allowed to dry in Petri dishes. Treated petals are placed into individual re-sealable plastic along with about 20 adult thrips. All test arenas are held under dark condition and a temperature of about 28°C for duration of the assay. The percent mortality is recorded 72 hours after treatment.

[3] = test system: yellow fever mosquito (Aedes aegypti); experiment: whole plant or invertebrate; settings: 48 h, larval mortality, 2 days, 28 ± 1°C, read-out: mortality in comparison with untreated controls
Protocol: B.5 Yellow fever mosquito (Aedes aegypti)
For evaluating control of yellow fever mosquito (Aedes aegypti) the test unit consisted of 96-well-microtiter plates containing 200µl of tap water per well and 5-15 freshly hatched A. aegypti larvae.
The active compounds were formulated using a solution containing 75% (v/v) water and 25% (v/v) DMSO. Different concentrations of formulated compounds or mixtures were sprayed onto the insect diet at 2.5µl, using a custom-built micro atomizer, at two replications.
After application, microtiter plates were incubated at 28 ± 1°C, 80 ± 5 % RH for 2 days. Larval mortality was then visually assessed.

[4] = test system: boll weevil (Anthonomus grandis); experiment: Boll weevil test, insect diet with eggs in 96-well microtiter plates; settings: 120 h, read-out: mortality in comparison with untreated controls
Protocol: B.3 Boll weevil (Anthonomus grandis)
For evaluating control of boll weevil (Anthonomus grandis), the test unit consisted of 96-well-microtiter plates containing an insect diet and 5-10 A. grandis eggs.
The compounds were formulated using a solution containing 75% v/v water and 25% v/v DMSO. Different concentrations of formulated compounds were sprayed onto the insect diet at 5µl, using a custom-built micro atomizer, at two replications.
After application, microtiter plates were incubated at about 25 ± 1°C and about 75 ± 5 % relative humidity for 5 days. Egg and larval mortality was then visually assessed.

[5] = test system: Southern armyworm (Spodoptera eridania), 2nd instar larvae; experiment: Southern armyworm foliar spray test on lima bean plants; settings: 96 h, 4 days after treatment, read-out: mortality in comparison with untreated controls
Protocol: B.4. Southern armyworm (Spodoptera eridania), 2nd instar larvae
The active compounds were formulated by a Tecan liquid handler in 100% cyclohexanone as a 10,000-ppm solution supplied in tubes. The 10,000-ppm solution was serially diluted in 100% cyclohexanone to make interim solutions. These served as stock solutions for which final dilutions were made by the Tecan in 50% acetone:50% water (v/v) into 10 or 20ml glass vials. A non-ionic surfactant (Kinetic®) was included in the solution at a volume of 0.01% (v/v). The vials were then inserted into an automated electrostatic sprayer equipped with an atomizing nozzle for application to plants/insects. Lima bean plants (variety Sieva) were grown 2 plants to a pot and selected for treatment at the 1st true leaf stage. Test solutions were sprayed onto the foliage by an automated electrostatic plant sprayer equipped with an atomizing spray nozzle. The plants were dried in the sprayer fume hood and then removed from the sprayer. Each pot was placed into perforated plastic bags with a zip closure. Ten to 11 armyworm larvae were placed into the bag and the bags zipped closed. […] Mortality and reduced feeding were assessed 4 days after treatment, compared to untreated control plants.

[6] = test system: tobacco budworm (Heliothis virescens); experiment: Tobacco budworm test, insect diet with eggs in 96-well microtiter plates; settings: 120 h, egg and larval mortality, 5 days, about 28 ± 1°C, read-out: mortality in comparison with untreated controls
Protocol: B.2 Tobacco budworm (Heliothis virescens)
For evaluating control of tobacco budworm (Heliothis virescens), the test unit consisted of 96-well-microtiter plates containing an insect diet and 15-25 H. virescens eggs.
The compounds were formulated using a solution containing 75% v/v water and 25% v/v DMSO. Different concentrations of formulated compounds were sprayed onto the insect diet at 10µl, using a custom-built micro atomizer, at two replications.
After application, microtiter plates were incubated at about 28 ± 1°C and about 80 ± 5 % relative humidity for 5 days. Egg and larval mortality was then visually assessed.

CC(NC(=O)c1cc(C(F)(F)F)cc(C(F)(F)F)c1)c1nccnc1-c1ncn(C2(C(N)=O)CC2)n1 (stereo not drawn) [I-2, N-[1-[3-[1-(1-carbamoylcyclopropyl)-1,2,4-triazol-3-yl]pyrazin-2-yl]ethyl]-3,5-bis(trifluoromethyl)benzamide]
≥ 75%: mortality at 2500 ppm [1] | mortality at 300 ppm [2] | mortality at 2500 ppm [3] | mortality at 2500 ppm [4] | mortality at 300 ppm [5] | mortality at 2500 ppm [6]

CC(NC(=O)c1cc(C(F)(F)F)cc(C(F)(F)F)c1)c1nccnc1-c1ncn(C2(C#N)CC2)n1 (stereo not drawn) [I-3, N-[1-[3-[1-(1-cyanocyclopropyl)-1,2,4-triazol-3-yl]pyrazin-2-yl]ethyl]-3,5-bis(trifluoromethyl)benzamide]
≥ 75%: mortality at 2500 ppm [1] | mortality at 300 ppm [2] | mortality at 2500 ppm [3] | mortality at 2500 ppm [4] | mortality at 300 ppm [5] | mortality at 2500 ppm [6]
